The record followed here is ChEMBL document CHEMBL4020748, “Benzoxazolinone aryl sulfonamides as potent, selective Nav1.7 inhibitors with in vivo efficacy in a preclinical pain model” (Bioorg Med Chem Lett, 2017).

What is called IC50 is the point on the concentration scale where inhibition reaches its midpoint. A word on the fraction unbound: it is free concentration divided by total concentration. Lower therefore signals little free substance. The term half-life denotes the time needed for the level to fall by half in the phase considered. Low values mean rapid decline, high ones slow decline. What is called bioavailability is the share of a dose that reaches the circulation, judged against a reference dose that is usually intravenous. A low value points to poor availability. Usually Papp stands for the rate of passage across a membrane or cell layer, normalised by area and donor concentration.

Molecules are shown by their SMILES. The source made the active and inactive calls. Some results are limits rather than exact numbers.

The target in data set [1] is T1, Sodium channel protein type 9 subunit alpha (Homo sapiens, UniProt Q15858). In words: Inhibition of 50% inactivated human Nav1.7alpha expressed in HEK293 cells incubated for 5 mins measured at 10 secs interval by PatchXpress automated electrophysiology method. In kind it is cell-based.
T1 sequence (Q15858 whole entry): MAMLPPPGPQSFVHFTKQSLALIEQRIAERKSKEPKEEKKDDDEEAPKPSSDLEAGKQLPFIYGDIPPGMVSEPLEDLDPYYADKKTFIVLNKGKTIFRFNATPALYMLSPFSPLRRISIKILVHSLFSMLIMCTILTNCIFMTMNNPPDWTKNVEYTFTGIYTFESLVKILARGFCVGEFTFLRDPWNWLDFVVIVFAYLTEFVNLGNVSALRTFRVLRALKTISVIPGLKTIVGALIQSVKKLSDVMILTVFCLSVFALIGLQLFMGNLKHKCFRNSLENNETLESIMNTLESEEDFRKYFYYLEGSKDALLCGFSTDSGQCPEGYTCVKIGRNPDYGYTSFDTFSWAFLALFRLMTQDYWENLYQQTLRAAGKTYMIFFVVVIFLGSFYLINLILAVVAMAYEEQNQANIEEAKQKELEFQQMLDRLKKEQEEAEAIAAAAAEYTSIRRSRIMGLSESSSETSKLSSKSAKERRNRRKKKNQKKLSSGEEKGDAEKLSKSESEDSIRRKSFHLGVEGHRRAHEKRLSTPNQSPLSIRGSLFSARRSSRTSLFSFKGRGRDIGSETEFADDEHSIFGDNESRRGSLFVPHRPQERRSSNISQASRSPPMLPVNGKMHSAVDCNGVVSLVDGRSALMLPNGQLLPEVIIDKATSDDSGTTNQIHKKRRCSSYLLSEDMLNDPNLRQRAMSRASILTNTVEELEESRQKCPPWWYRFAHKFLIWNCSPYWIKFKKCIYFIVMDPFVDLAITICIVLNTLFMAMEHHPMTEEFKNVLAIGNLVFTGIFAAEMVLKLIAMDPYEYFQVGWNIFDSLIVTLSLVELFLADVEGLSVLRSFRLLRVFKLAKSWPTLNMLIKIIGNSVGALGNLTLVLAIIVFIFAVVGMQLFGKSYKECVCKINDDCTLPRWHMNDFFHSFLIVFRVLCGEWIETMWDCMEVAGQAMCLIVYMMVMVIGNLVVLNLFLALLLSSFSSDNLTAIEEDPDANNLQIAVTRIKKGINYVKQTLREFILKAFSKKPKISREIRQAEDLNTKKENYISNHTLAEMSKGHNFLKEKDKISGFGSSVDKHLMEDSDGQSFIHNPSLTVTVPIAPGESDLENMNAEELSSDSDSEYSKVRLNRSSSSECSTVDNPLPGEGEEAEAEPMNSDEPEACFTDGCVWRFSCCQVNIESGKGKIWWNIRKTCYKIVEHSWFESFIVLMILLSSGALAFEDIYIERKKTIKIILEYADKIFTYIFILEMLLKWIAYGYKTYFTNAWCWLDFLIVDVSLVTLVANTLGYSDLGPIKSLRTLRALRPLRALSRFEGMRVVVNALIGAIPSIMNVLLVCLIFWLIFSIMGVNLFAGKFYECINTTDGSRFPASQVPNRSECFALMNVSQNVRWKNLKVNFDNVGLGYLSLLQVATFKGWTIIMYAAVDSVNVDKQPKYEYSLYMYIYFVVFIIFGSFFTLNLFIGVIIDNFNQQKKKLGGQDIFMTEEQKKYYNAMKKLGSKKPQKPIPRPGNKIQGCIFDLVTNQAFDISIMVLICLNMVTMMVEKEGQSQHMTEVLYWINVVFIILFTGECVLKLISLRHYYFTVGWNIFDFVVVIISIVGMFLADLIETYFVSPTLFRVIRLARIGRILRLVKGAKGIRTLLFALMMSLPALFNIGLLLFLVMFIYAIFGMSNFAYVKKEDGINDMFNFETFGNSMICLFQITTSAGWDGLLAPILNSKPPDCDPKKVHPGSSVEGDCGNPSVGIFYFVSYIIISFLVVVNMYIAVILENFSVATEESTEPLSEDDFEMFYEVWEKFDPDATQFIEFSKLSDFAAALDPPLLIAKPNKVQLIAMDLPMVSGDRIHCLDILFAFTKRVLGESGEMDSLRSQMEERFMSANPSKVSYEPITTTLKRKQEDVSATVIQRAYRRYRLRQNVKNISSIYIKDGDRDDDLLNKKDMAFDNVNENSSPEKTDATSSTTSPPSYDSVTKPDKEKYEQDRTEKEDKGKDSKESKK
Data set [2] is described as follows: Selectivity ratio of IC50 for human Nav1.5alpha expressed in HEK293 cells to human Nav1.7alpha expressed in HEK293 cells.
In data set [3] the target is Sodium channel protein type 5 subunit alpha (Homo sapiens, UniProt Q14524). The data set can be described thus: Inhibition of 50% inactivated human Nav1.5alpha expressed in HEK293 cells incubated for 5 mins measured at 10 secs interval by PatchXpress automated electrophysiology method. In kind it is ADME, cell-based.
The nature of data set [4]: Ratio of drug level in brain to plasma in rat. The class given is ADME.
Data set [5] can be described thus: Fraction unbound in C57BL/6 mouse plasma at 100 mg/kg, sc. In kind it is ADME, organism-based.
A short description of data set [6]: Half life in Wistar Hannover rat at 2 mg/kg, iv. The conditions noted are these: in vivo. The class given is ADME, organism-based.
Data set [7] has as its target Voltage-dependent L-type calcium channel subunit alpha-1C (Homo sapiens, UniProt Q13936). The data set can be described thus: Activity at Cav1.2 (unknown origin).
The target of data set [8] is T2, Sodium channel protein type 9 subunit alpha (Mus musculus, UniProt Q62205). In words: Inhibition of NaV1.7 channel in mouse DRG neurons assessed as reduction of TTX-sensitive current by whole cell patch clamp assay. For orientation: In patch-clamp work, channel activity is measured electrically.
T2 sequence (Q62205 whole entry): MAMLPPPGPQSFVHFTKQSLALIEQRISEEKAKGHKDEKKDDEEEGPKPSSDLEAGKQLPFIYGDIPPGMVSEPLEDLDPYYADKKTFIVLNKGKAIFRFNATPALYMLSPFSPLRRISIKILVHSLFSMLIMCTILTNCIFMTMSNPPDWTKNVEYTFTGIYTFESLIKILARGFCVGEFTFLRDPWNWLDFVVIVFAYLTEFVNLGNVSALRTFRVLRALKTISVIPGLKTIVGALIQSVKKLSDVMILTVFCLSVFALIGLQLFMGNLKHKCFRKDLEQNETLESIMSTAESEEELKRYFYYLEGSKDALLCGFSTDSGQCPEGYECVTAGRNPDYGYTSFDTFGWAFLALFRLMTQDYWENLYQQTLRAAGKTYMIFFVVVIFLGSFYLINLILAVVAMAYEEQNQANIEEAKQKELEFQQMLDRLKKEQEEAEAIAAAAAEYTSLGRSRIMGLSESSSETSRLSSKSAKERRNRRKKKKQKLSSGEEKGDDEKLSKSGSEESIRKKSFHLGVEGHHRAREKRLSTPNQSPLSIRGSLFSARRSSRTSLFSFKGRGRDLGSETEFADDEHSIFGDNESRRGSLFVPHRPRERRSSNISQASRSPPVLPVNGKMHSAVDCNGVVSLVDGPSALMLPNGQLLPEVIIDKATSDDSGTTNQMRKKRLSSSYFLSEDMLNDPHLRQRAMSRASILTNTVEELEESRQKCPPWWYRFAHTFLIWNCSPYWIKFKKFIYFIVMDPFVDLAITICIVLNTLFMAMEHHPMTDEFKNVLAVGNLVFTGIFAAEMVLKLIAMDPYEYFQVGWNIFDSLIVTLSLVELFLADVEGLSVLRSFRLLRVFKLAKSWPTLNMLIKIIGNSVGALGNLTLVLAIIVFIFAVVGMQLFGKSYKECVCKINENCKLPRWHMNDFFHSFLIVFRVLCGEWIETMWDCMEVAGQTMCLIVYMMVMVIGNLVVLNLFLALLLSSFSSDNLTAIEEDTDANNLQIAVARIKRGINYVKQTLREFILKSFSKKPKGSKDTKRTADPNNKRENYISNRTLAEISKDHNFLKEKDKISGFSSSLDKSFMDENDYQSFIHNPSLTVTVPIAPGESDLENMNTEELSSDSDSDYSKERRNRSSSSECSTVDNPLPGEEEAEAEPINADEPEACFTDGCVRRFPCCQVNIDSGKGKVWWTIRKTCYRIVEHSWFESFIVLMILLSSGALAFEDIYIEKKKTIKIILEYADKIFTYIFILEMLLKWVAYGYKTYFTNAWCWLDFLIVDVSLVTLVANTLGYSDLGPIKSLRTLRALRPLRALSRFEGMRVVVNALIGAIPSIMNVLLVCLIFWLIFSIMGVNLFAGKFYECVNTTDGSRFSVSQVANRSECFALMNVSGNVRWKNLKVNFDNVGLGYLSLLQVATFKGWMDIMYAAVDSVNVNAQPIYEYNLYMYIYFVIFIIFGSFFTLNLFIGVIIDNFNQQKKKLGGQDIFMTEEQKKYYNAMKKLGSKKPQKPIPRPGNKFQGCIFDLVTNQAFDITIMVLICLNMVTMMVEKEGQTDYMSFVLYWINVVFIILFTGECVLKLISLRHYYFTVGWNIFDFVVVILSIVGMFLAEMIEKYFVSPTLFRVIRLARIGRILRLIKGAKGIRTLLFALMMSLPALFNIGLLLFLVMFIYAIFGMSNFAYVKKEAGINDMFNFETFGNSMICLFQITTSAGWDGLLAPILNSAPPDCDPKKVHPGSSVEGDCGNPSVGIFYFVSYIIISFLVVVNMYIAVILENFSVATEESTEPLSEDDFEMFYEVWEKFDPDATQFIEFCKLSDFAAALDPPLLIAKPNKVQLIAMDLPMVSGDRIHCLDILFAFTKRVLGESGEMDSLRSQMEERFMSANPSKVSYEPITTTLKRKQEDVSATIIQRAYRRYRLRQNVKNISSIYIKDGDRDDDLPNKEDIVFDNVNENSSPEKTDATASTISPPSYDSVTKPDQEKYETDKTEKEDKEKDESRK
A short description of data set [9]: Oral bioavailability in Wistar Hannover rat at 10 mg/kg. In kind it is ADME, organism-based. The conditions noted are these: in vivo.
Data set [10] deals with Mus musculus. The data set can be described thus: Analgesic activity in C57BL/6 mouse assessed as reduction in formalin-induced nociceptive behavior at 100 mg/kg, sc pretreated for 90 mins followed by formalin challenge measured up to 5 mins. The class given is functional, organism-based.
Data set [11] deals with Mus musculus. The data set can be described thus: Analgesic activity in C57BL/6 mouse assessed as unbound concentration required for 50% reduction in formalin-induced nociceptive behavior at 100 mg/kg, sc pretreated for 90 mins followed by formalin challenge measured after 20 to 35 mins. The class given is functional.
The test system of data set [12] is Mus musculus. In words: Analgesic activity in C57BL/6 mouse assessed as reduction in formalin-induced nociceptive behavior administered subcutaneously pretreated for 90 mins followed by formalin challenge measured up to 30 mins. The class given is functional.
Data set [13] has as its target T2, Sodium channel protein type 9 subunit alpha. In words: Inhibition of 50% inactivated mouse Nav1.7alpha incubated for 5 mins measured at 10 secs interval by PatchXpress automated electrophysiology method.
Data set [14] has as its target Sodium channel protein type 2 subunit alpha (Homo sapiens, UniProt Q99250). In words: Inhibition of Nav1.2 (unknown origin).
A short description of data set [15]: Apparent permeability of the compound. In kind it is physicochemical. The conditions noted are these: not told.
Data set [16] can be described thus: Activity at CYP450 (unknown origin). In kind it is ADME. The conditions noted are these: human.
Data set [17] in a line: Ratio of fIC50 for analgesic activity in formalin-induced nociceptive C57BL/6 mouse model assessed as reduction in nociceptive behavior to IC50 for 50% inactivated mouse Nav1.7alpha.
Data set [18] concerns Mus musculus. The data set can be described thus: Analgesic activity in C57BL/6 mouse assessed as reduction in formalin-induced nociceptive behavior at 100 mg/kg, sc pretreated for 90 mins followed by formalin challenge measured after 20 to 35 mins. The class given is functional, organism-based.
A short description of data set [19]: Fraction unbound in Wistar Hannover rat plasma. The class given is ADME, cell-free.
The target of data set [20] is T3, Nuclear receptor subfamily 1 group I member 2 (Homo sapiens, UniProt O75469).
T3 sequence (O75469 whole entry): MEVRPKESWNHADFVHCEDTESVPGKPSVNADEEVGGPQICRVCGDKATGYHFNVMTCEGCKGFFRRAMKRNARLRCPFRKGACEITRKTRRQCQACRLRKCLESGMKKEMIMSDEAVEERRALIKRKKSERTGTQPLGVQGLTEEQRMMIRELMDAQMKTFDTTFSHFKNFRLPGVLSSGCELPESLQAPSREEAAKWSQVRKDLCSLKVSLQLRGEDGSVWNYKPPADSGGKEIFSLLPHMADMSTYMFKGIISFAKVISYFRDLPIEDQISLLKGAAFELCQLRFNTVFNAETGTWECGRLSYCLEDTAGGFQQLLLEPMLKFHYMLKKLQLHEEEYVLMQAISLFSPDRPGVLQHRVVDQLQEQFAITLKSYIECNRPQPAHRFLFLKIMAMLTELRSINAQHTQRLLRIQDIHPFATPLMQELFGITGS
The data set can be described thus: Activity at PXR (unknown origin). In kind it is ADME.

In data set [21] the target is Voltage-gated inwardly rectifying potassium channel KCNH2 (Homo sapiens, UniProt Q12809). The data set can be described thus: Activity at human ERG.
Sequence of Voltage-gated inwardly rectifying potassium channel KCNH2 (Q12809 whole entry): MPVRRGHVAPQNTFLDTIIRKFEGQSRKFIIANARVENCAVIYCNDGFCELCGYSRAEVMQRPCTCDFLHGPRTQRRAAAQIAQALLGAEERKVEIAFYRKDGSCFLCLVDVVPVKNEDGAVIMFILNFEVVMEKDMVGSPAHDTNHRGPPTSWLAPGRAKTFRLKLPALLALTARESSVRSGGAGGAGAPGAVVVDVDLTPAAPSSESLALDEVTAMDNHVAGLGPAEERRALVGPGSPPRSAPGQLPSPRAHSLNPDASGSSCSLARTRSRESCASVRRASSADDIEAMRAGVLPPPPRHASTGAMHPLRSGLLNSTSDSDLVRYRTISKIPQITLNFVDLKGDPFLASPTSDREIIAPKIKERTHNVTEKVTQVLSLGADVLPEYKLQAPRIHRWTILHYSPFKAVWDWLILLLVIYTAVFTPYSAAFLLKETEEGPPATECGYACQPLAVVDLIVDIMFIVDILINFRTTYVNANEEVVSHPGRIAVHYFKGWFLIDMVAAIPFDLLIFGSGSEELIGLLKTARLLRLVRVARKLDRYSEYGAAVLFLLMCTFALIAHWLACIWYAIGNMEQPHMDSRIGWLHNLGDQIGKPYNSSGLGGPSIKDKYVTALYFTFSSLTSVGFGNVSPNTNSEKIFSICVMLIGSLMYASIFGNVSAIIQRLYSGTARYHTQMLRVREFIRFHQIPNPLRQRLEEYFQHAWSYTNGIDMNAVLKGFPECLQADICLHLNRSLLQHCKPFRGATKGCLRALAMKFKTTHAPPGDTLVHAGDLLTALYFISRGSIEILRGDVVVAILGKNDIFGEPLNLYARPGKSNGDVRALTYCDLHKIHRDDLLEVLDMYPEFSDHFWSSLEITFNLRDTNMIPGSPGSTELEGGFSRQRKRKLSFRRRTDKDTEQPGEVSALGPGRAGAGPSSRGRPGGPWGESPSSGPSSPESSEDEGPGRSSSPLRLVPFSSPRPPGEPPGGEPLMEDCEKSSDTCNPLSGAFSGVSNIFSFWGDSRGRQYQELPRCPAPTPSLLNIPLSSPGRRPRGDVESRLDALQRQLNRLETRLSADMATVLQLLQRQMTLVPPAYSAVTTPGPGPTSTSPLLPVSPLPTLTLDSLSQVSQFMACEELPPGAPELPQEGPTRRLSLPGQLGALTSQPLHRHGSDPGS
The target in data set [22] is Sodium channel protein type 9 subunit alpha (Rattus norvegicus, UniProt O08562). In words: Inhibition of NaV1.7 channel in rat DRG neurons assessed as reduction of TTX-sensitive sodium current by whole cell patch clamp assay.
In another data set the test system is Rattus norvegicus. The data set can be described thus: Unbound plasma clearance in Wistar Hannover rat at 2 mg/kg, iv. The conditions noted are these: in vivo. The class given is ADME, organism-based.
Data set [23] can be described thus: Ratio of drug level in CSF to plasma in rat. In kind it is ADME.
Data set [24] concerns the target T1, Sodium channel protein type 9 subunit alpha. In words: Inhibition of NaV1.7 channel in human DRG neurons assessed as reduction of TTX-sensitive current by whole cell patch clamp assay.

The compound `O=c1oc2cc(S(=O)(=O)Nc3ncns3)ccc2n1Cc1cccc2c1CNCC2` displayed an IC50 in [1] of 190 nM. Besides, the “Ratio IC50” value in data set [2] is greater than 158.
Take `C[C@H](c1cccc2c1CNCC2)n1c(=O)oc2cc(S(=O)(=O)Nc3ccc(F)cn3)c(F)cc21`: the “Ratio IC50” value in [2] came to 108.
For `C[C@H](c1ccccc1)n1c(=O)oc2cc(S(=O)(=O)Nc3ncns3)ccc21`, the “Ratio IC50” value in data set [2] is recorded as 287.
With `O=C1COc2cc(S(=O)(=O)Nc3ncns3)ccc2N1Cc1ccccc1`, the IC50 in data set [1] was 815 nM; in [3], greater than 30000 nM. Also, the “Ratio IC50” value in data set [2] is listed as greater than 37.
As for `O=c1oc2cc(S(=O)(=O)Nc3ncns3)ccc2n1Cc1ccccc1`, in data set [2], the “Ratio IC50” value is recorded as greater than 62. Also, in [3], the IC50 was greater than 30000 nM.
In the case of `O=c1sc2cc(S(=O)(=O)Nc3ncns3)ccc2n1Cc1ccccc1`, the results for the IC50 in data set [1] and in data set [3] were 970 nM and greater than 30000 nM, respectively. Besides, the “Ratio IC50” value in data set [2] is greater than 31.
As to `C[C@H](c1cccc2c1CNCC2)n1c(=O)oc2cc(S(=O)(=O)Nc3cc(Cl)ccn3)c(F)cc21`, the “Ratio IC50” value in [2] was 88.
The same measure, in the same setting: next, `O=S(=O)(Nc1ncns1)c1ccc2c(cnn2Cc2ccccc2)c1`: 6.
On to `C[C@H](c1cccc2c1CNCC2)n1c(=O)oc2cc(S(=O)(=O)Nc3ncns3)ccc21`, for which the BPR in [4] came out at 1%. For the same compound, the fraction unbound turned out to be 0.065 in [5] and 0.133 in data set [19]. The compound also gave a half-life in data set [6] of 0.8 h. Further, the Activity entry in data set [7] is “Not Active”; in the data set on Mus musculus [12], “Dose-dependent effect”; in data set [16], “Not Active”; in data set [20], “Not Active”; in [21], “Not Active”. In addition, the half-inhibitory concentration (IC50) was 82 nM in [8]; 30 nM in [13]; 29 nM in data set [14]; 23000 nM in the data set on Mus musculus [18]; 2370 nM in data set [22]; 21 nM in data set [1]. Besides, the IC50 in data set [24] was determined as 31 nM. For the same compound, the bioavailability in [9] came to 2%. Besides, the outcome with Mus musculus [10] was Active. Besides, the fIC50 in the data set with Mus musculus [11] worked out at 1.5 µM. Further, in [15], the Papp was less than 2 ×10⁻⁶ cm/s. In addition, the Ratio in data set [17] is listed as 50; in [23], 0%. The compound also had a CL free in the data set on Rattus norvegicus of 360 mL/min/kg. Moreover, the “Ratio IC50” value in data set [2] is recorded as 1381.
In data set [5], `C[C@H](c1ccccc1CN)n1c(=O)oc2cc(S(=O)(=O)Nc3cccc(F)n3)c(F)cc21` showed a fraction unbound of 0.145. Moreover, the half-life in data set [6] was 3 h. The compound also displayed a bioavailability in data set [9] of 50%. In addition, the fIC50 in the data set with Mus musculus [11] was determined as 1.1 µM. The IC50 stood at 11 nM in data set [13], 7400 nM with Mus musculus [18] and 39 nM in data set [1]. Besides, the Papp in [15] is 4 ×10⁻⁶ cm/s. For the same compound, in [17], the Ratio came out at 100. Also, the CL free in the data set with Rattus norvegicus was 170 mL/min/kg. Besides, the “Ratio IC50” value in [2] is 850.
Take `C[C@H](c1cccc2c1CNCC2)n1c(=O)oc2cc(S(=O)(=O)Nc3cccc(F)n3)c(F)cc21`: the half-life in data set [6] was 1.9 h. In data set [9], this compound had a bioavailability of 30%. Moreover, the Papp in [15] is 2.5 ×10⁻⁶ cm/s. For the same compound, the CL free with Rattus norvegicus is 300 mL/min/kg. This compound yielded an IC50 in [1] of 150 nM. Besides, in data set [2], the “Ratio IC50” value is reported as 210.
